Patent publication US12559529B2, “NPY2 receptor agonists” (Boehringer Ingelheim International GmbH, priority 2019, dated 2026)
*1 amine or outer side, *2 acyl side, *3 side chain or, on linkers, in order; H or OH if unused. Where a SMILES comes first, the peptide text is derived from it. Side-chain parts run from the residue outwards. The star is where a group is joined. C18 diacid = O=C(O)CCCCCCCCCCCCCCCCC(=O)*; γGlu = O=C(O)[C@H](CCC(=O)[*:2])N[*:1]; Isovaleryl = CC(C)CC(=O)*; AEEA = NCCOCCOCC(=O)O

These compounds were tested against T1, Human Neuropeptide Y2 Receptor (Homo sapiens, UniProt P49146) (assay: Radioligand binding competition assay (RLB)). Details: Table 3; human 125I-PYY (1-36) 0.02 nM, Y2 receptor membranes; read-out: Ki.
T1 construct: purchased CHEMICON HTS066M
T1 sequence (P49146 1-381): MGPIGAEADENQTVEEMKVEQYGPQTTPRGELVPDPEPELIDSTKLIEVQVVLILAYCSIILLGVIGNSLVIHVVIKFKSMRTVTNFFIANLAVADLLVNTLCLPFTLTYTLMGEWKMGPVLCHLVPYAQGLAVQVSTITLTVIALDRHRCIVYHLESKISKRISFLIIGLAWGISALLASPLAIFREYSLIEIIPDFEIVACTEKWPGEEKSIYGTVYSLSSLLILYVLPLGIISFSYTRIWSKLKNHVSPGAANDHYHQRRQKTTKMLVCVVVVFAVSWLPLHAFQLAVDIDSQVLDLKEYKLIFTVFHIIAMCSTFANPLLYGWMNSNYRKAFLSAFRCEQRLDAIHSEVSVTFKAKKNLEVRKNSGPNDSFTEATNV
In short: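 Filtration format; Y2R membrane prep 0.5 μg/well; buffer 50 mM HEPES/5 mM MgCl2/1 mM CaCl2/0.2% ovalbumin pH 7.4; 2 h RT, shaking. Harvest on PEI-soaked GF/C, ice-cold HEPES/500 mM NaCl washes, scintillation count. IC50 by nonlinear fit.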

Ki | Compound
1.65 nM | CC(C)CC(=O)N[C@@H](C)C(=O)N1CCC[C@H]1C(=O)N[C@@H](CCC(=O)O)C(=O)N[C@@H](CCCCNC(=O)COCCOCCNC(=O)COCCOCCNC(=O)CC[C@H](NC(=O)CCCCCCCCCCCCCCCCC(=O)O)C(=O)O)C(=O)N1CCC[C@H]1C(=O)N[C@@H](CCC(=O)O)C(=O)N[C@@H](CCC(=O)O)C(=O)N[C@@H](CC(=O)O)C(=O)N[C@@H](C)C(=O)N[C@@H](C)C(=O)N1CCC[C@H]1C(=O)N[C@@H](C)C(=O)N[C@@H](CCC(=O)O)C(=O)N[C@@H](CC(C)C)C(=O)N[C@@H](CCC(N)=O)C(=O)N[C@@H](CCCNC(=N)N)C(=O)N[C@@H](Cc1ccc(O)cc1)C(=O)N[C@@H](Cc1ccc(O)cc1)C(=O)N[C@H](C(=O)N[C@@H](CO)C(=O)N[C@@H](CC(C)C)C(=O)N[C@@H](CCCNC(=N)N)C(=O)N[C@@H](Cc1c[nH]cn1)C(=O)N[C@@H](Cc1ccc(O)cc1)C(=O)N[C@@H](Cc1ccc(O)cc1)C(=O)N[C@@H](CC(N)=O)C(=O)N[C@@H](Cc1c[nH]c2ccccc12)C(=O)N[C@@H](CC(C)C)C(=O)N[C@H](C(=O)N[C@@H](CCCNC(=N)N)C(=O)N[C@@H](CCC(N)=O)C(=O)N[C@@H](CCCNC(=N)N)C(=O)N[C@@H](Cc1ccc(O)cc1)C(N)=O)[C@@H](C)O)C(C)C [Compound 192, N{alpha-4}-(3-methylbutanoyl)-N{epsilon-7}-[2-(2-{2-[2-(2-{2-[(4S)-4-carboxy-4-(17-carboxyheptadecanamido)butanamido]ethoxy}ethoxy)acetamido]ethoxy}ethoxy)acetamido]-[4A,7K,9E,13A,15A,18Q,22V,28Y,30W,31L]hPYY (4-36)]
0.98 nM | CC(C)CC(=O)N[C@@H](C)C(=O)N1CCC[C@H]1C(=O)N[C@@H](C)C(=O)N[C@@H](CCCCNC(=O)COCCOCCNC(=O)COCCOCCNC(=O)CC[C@H](NC(=O)CCCCCCCCCCCCCCCCC(=O)O)C(=O)O)C(=O)N1CCC[C@H]1C(=O)N1CCC[C@H]1C(=O)N[C@@H](CCC(=O)O)C(=O)N[C@@H](CC(=O)O)C(=O)N[C@@H](C)C(=O)N[C@@H](CCC(=O)O)C(=O)N1CCC[C@H]1C(=O)N[C@@H](CCC(=O)O)C(=O)N[C@@H](CCC(=O)O)C(=O)N[C@@H](CC(C)C)C(=O)N[C@@H](CCC(N)=O)C(=O)N[C@@H](CCCNC(=N)N)C(=O)N[C@@H](Cc1ccc(O)cc1)C(=O)N[C@@H](Cc1ccc(O)cc1)C(=O)N[C@H](C(=O)N[C@@H](CO)C(=O)N[C@@H](CC(C)C)C(=O)N[C@@H](CCCNC(=N)N)C(=O)N[C@@H](Cc1c[nH]cn1)C(=O)N[C@@H](Cc1ccc(O)cc1)C(=O)N[C@@H](Cc1ccc(O)cc1)C(=O)N[C@@H](CC(N)=O)C(=O)N[C@@H](Cc1c[nH]c2ccccc12)C(=O)N[C@@H](CC(C)C)C(=O)N[C@H](C(=O)N[C@@H](CCCNC(=N)N)C(=O)N[C@@H](CCC(N)=O)C(=O)N[C@@H](CCCNC(=N)N)C(=O)N[C@@H](Cc1ccc(O)cc1)C(N)=O)[C@@H](C)O)C(C)C [Compound 196, N{alpha-4}-(3-methylbutanoyl)-N{epsilon-7}-[2-(2-{2-[2-(2-{2-[(4S)-4-carboxy-4-(17-carboxyheptadecanamido)butanamido]ethoxy}ethoxy)acetamido]ethoxy}ethoxy)acetamido]-[4A,6A,7K,9P,13E,18Q,22V,28Y,30W,31L]hPYY (4-36)]
0.87 nM | CC(C)CC(=O)N[C@@H](C)C(=O)N1CCC[C@H]1C(=O)N[C@@H](C)C(=O)N[C@@H](CCCCNC(=O)COCCOCCNC(=O)COCCOCCNC(=O)CC[C@H](NC(=O)CCCCCCCCCCCCCCCCC(=O)O)C(=O)O)C(=O)N1CCC[C@H]1C(=O)N[C@@H](CCC(=O)O)C(=O)N[C@@H](C)C(=O)N[C@@H](CC(=O)O)C(=O)N[C@@H](C)C(=O)N[C@@H](CO)C(=O)N1CCC[C@H]1C(=O)N[C@@H](CCC(=O)O)C(=O)N[C@@H](CCC(=O)O)C(=O)N[C@@H](CC(C)C)C(=O)N[C@@H](CCC(N)=O)C(=O)N[C@@H](CCCNC(=N)N)C(=O)N[C@@H](Cc1ccc(O)cc1)C(=O)N[C@@H](Cc1ccc(O)cc1)C(=O)N[C@H](C(=O)N[C@@H](CCC(=O)O)C(=O)N[C@@H](CC(C)C)C(=O)N[C@@H](CCCNC(=N)N)C(=O)N[C@@H](Cc1c[nH]cn1)C(=O)N[C@@H](Cc1ccc(O)cc1)C(=O)N[C@@H](Cc1ccc(O)cc1)C(=O)N[C@@H](CC(N)=O)C(=O)N[C@@H](Cc1c[nH]c2ccccc12)C(=O)N[C@@H](CC(C)C)C(=O)N[C@H](C(=O)N[C@@H](CCCNC(=N)N)C(=O)N[C@@H](CCC(N)=O)C(=O)N[C@@H](CCCNC(=N)N)C(=O)N[C@@H](Cc1ccc(O)cc1)C(N)=O)[C@@H](C)O)C(C)C [Compound 197, N{alpha-4}-(3-methylbutanoyl)-N{epsilon-7}-[2-(2-{2-[2-(2-{2-[(4S)-4-carboxy-4-(17-carboxyheptadecanamido)butanamido]ethoxy}ethoxy)acetamido]ethoxy}ethoxy)acetamido]-[4A,6A,7K,9E,10A,18Q,22V,23E,28Y,30W,31L]hPYY (4-36)]
5.69 nM | CC(C)CC(=O)N[C@@H](C)C(=O)N1CCC[C@H]1C(=O)N[C@@H](CCC(=O)O)C(=O)N[C@@H](CCCCNC(=O)COCCOCCNC(=O)COCCOCCNC(=O)CC[C@H](NC(=O)CCCCCCCCCCCCCCCCC(=O)O)C(=O)O)C(=O)N1CCC[C@H]1C(=O)N[C@@H](CCC(=O)O)C(=O)N[C@@H](CCC(=O)O)C(=O)N[C@@H](CC(=O)O)C(=O)N[C@@H](C)C(=O)N[C@@H](CCC(=O)O)C(=O)N1CCC[C@H]1C(=O)N[C@@H](CCC(=O)O)C(=O)N[C@@H](CCC(=O)O)C(=O)N[C@H](C(=O)N[C@@H](CCC(N)=O)C(=O)N[C@@H](CCCNC(=N)N)C(=O)N[C@@H](Cc1ccc(O)cc1)C(=O)N[C@@H](Cc1ccc(O)cc1)C(=O)N[C@H](C(=O)N[C@@H](CO)C(=O)N[C@@H](CC(C)C)C(=O)N[C@@H](CCCNC(=N)N)C(=O)N[C@@H](Cc1c[nH]cn1)C(=O)N[C@@H](Cc1ccc(O)cc1)C(=O)N[C@@H](Cc1ccc(O)cc1)C(=O)N[C@@H](CC(N)=O)C(=O)N[C@@H](Cc1c[nH]c2ccccc12)C(=O)N[C@@H](CC(C)C)C(=O)N[C@H](C(=O)N[C@@H](CCCNC(=N)N)C(=O)N[C@@H](CCC(N)=O)C(=O)N[C@@H](CCCNC(=N)N)C(=O)N[C@@H](Cc1ccc(O)cc1)C(N)=O)[C@@H](C)O)C(C)C)[C@@H](C)O [Compound 199, N{alpha-4}-(3-methylbutanoyl)-N{epsilon-7}-[2-(2-{2-[2-(2-{2-[(4S)-4-carboxy-4-(17-carboxyheptadecanamido)butanamido]ethoxy}ethoxy)acetamido]ethoxy}ethoxy)acetamido]-[4A,7K,9E,13E,17T,18Q,22V,28Y,30W,31L]hPYY (4-36)]
3.35 nM | CC(C)CC(=O)N[C@@H](C)C(=O)N1CCC[C@H]1C(=O)N[C@@H](CCC(=O)O)C(=O)N[C@@H](CCCCNC(=O)COCCOCCNC(=O)COCCOCCNC(=O)CC[C@H](NC(=O)CCCCCCCCCCCCCCCCC(=O)O)C(=O)O)C(=O)N1CCC[C@H]1C(=O)N[C@@H](CCC(=O)O)C(=O)N[C@@H](CCC(=O)O)C(=O)N[C@@H](CCC(=O)O)C(=O)N[C@@H](C)C(=O)N[C@@H](CO)C(=O)N1CCC[C@H]1C(=O)N[C@@H](CCC(=O)O)C(=O)N[C@@H](CCC(=O)O)C(=O)N[C@H](C(=O)N[C@@H](CCC(N)=O)C(=O)N[C@@H](CCCNC(=N)N)C(=O)N[C@@H](Cc1ccc(O)cc1)C(=O)N[C@@H](Cc1ccc(O)cc1)C(=O)N[C@H](C(=O)N[C@@H](CO)C(=O)N[C@@H](CC(C)C)C(=O)N[C@@H](CCCNC(=N)N)C(=O)N[C@@H](Cc1c[nH]cn1)C(=O)N[C@@H](Cc1ccc(O)cc1)C(=O)N[C@@H](Cc1ccc(O)cc1)C(=O)N[C@@H](CC(N)=O)C(=O)N[C@@H](Cc1c[nH]c2ccccc12)C(=O)N[C@@H](CC(C)C)C(=O)N[C@H](C(=O)N[C@@H](CCCNC(=N)N)C(=O)N[C@@H](CCC(N)=O)C(=O)N[C@@H](CCCNC(=N)N)C(=O)N[C@@H](Cc1ccc(O)cc1)C(N)=O)[C@@H](C)O)C(C)C)C(C)C [Compound 204, N{alpha-4}-(3-methylbutanoyl)-N{epsilon-7}-[2-(2-{2-[2-(2-{2-[(4S)-4-carboxy-4-(17-carboxyheptadecanamido)butanamido]ethoxy}ethoxy)acetamido]ethoxy}ethoxy)acetamido]-[4A,7K,9E,11E,17V,18Q,22V,28Y,30W,31L]hPYY (4-36)] (Isovaleryl-APEK([AEEA-AEEA-γGlu-C18 diacid])PEEEASPEEVQRYYVSLRHYYNWLTRQRY-NH2)
